Data set [1] relates to Mus musculus. The data set can be described thus: Effect on IL-6 level in dust-mite-induced BALB/c mouse model of airway inflammation assessed as greater than 2 fold induction at 6 mg/kg, sc administered for 2 weeks and measured 24 hrs post-HDM challenge by MSD multiplex assay. Type of data set: functional, organism-based.
The subject of data set [2] is Mus musculus. The data set can be described thus: Effect on MIP2 level in dust-mite-induced BALB/c mouse model of airway inflammation assessed as greater than 2 fold induction at 6 mg/kg, sc administered for 2 weeks and measured 24 hrs post-HDM challenge by MSD multiplex assay. Type of data set: functional, organism-based.
Data set [3] relates to HBEC3-KT. The data set can be described thus: Antiinflammatory activity in human HBEC3-KT cells assessed as effect on MCP1 expression measured after 24 hrs by ELISA relative to control. In kind it is functional, cell-based.
Data set [4] deals with Mus musculus. The data set can be described thus: Effect on IL-15 level in dust-mite-induced BALB/c mouse model of airway inflammation assessed as greater than 2 fold induction at 6 mg/kg, sc administered for 2 weeks and measured 24 hrs post-HDM challenge by MSD multiplex assay. In kind it is functional, organism-based.
In data set [5] the test system is Mus musculus. The data set can be described thus: Effect on IL-25 level in dust-mite-induced BALB/c mouse model of airway inflammation assessed as greater than 2 fold induction at 6 mg/kg, sc administered for 2 weeks and measured 24 hrs post-HDM challenge by MSD multiplex assay. In kind it is functional, organism-based.
Data set [6] concerns Mus musculus. The data set can be described thus: Effect on IL-4 level in dust-mite-induced BALB/c mouse model of airway inflammation assessed as greater than 2 fold induction at 6 mg/kg, sc administered for 2 weeks and measured 24 hrs post-HDM challenge by MSD multiplex assay. In kind it is functional, organism-based.
The subject of data set [7] is Mus musculus. The data set can be described thus: Effect on MCP1 level in dust-mite-induced BALB/c mouse model of airway inflammation assessed as greater than 2 fold induction at 6 mg/kg, sc administered for 2 weeks and measured 24 hrs post-HDM challenge by MSD multiplex assay. Type of data set: functional, organism-based.
The test system of data set [8] is Mus musculus. The data set can be described thus: Antiinflammatory activity in house dust-mite-induced BALB/c mouse model of airway inflammation assessed as suppression of IL-33 abundance in lung tissue lysate at 6 mg/kg, sc administered for 2 weeks and measured 24 hrs post-HDM challenge by ELISA. In kind it is functional.
Data set [9] concerns HBEC3-KT. The data set can be described thus: Antiinflammatory activity in INFgamma-induced MCP1 expressed in human HBEC3-KT cells assessed as fold change measured after 24 hrs by ELISA relative to control. Type of data set: functional.
In data set [10] the test system is Mus musculus. The data set can be described thus: Antiinflammatory activity in house dust-mite-induced BALB/c mouse model of airway inflammation assessed as suppression of total neutrophil count in BALF at 6 mg/kg, sc administered for 2 weeks and measured 24 hrs post-HDM challenge by Wright-Giemsa staining based microscopy. In kind it is functional.
The subject of data set [11] is Mus musculus. The data set can be described thus: Antiinflammatory activity in house dust-mite-induced BALB/c mouse model of methacholine-induced airway hyperreactivity assessed as reduction in methacholine-induced tissue damping at 6 mg/kg , ip administered for 2 weeks after methacholine-stimulation at 12 mg/ml measured 24 hrs post-HDM challenge. In kind it is functional, organism-based.

The test system of data set [12] is Mus musculus. The data set can be described thus: Effect on IL-21 level in dust-mite-induced BALB/c mouse model of airway inflammation assessed as greater than 2 fold induction at 6 mg/kg, sc administered for 2 weeks and measured 24 hrs post-HDM challenge by MSD multiplex assay. In kind it is functional, organism-based.
The test system of data set [13] is Mus musculus. The data set can be described thus: Effect on IL-31 level in dust-mite-induced BALB/c mouse model of airway inflammation assessed as greater than 2 fold induction at 6 mg/kg, sc administered for 2 weeks and measured 24 hrs post-HDM challenge by MSD multiplex assay. In kind it is functional, organism-based.
Data set [14] deals with Mus musculus. The data set can be described thus: Antiinflammatory activity in house dust-mite-induced BALB/c mouse model of methacholine-induced airway hyperreactivity assessed as reduction in methacholine-induced tissue elastance at 6 mg/kg , ip administered for 2 weeks after methacholine-stimulation at 12 mg/ml measured 24 hrs post-HDM challenge. Type of data set: functional, organism-based.

A short description of data set [15]: Retention time of the compound by HPLC analysis. Type of data set: physicochemical.
Data set [16] deals with Mus musculus. The data set can be described thus: Effect on IL-9 level in dust-mite-induced BALB/c mouse model of airway inflammation assessed as greater than 2 fold induction at 6 mg/kg, sc administered for 2 weeks and measured 24 hrs post-HDM challenge by MSD multiplex assay. In kind it is functional, organism-based.
Data set [17] concerns Mus musculus. The data set can be described thus: Effect on IL-17A level in dust-mite-induced BALB/c mouse model of airway inflammation assessed as greater than 2 fold induction at 6 mg/kg, sc administered for 2 weeks and measured 24 hrs post-HDM challenge by MSD multiplex assay. In kind it is functional, organism-based.

Active and inactive are the calls of the source. The rule behind the calls is not given here.

Consider H-VQRWLIVRRIRK-OH, for which the outcome in data set [1], in data set [2], in [3], in data set [4], in data set [5] and in data set [6] was inactive. Further, the result in [7], in data set [8], in data set [10], in [12], in [13] and in [16] was inactive. For the same substance, the result in data set [17] was inactive. Also, the “fold change (FC)” value in [9] is “inactive”. The outcome in [11] and in [14] was Active. The substance further returned a Retention_time in data set [15] of 14.04 min.

Regarding H-VQRWLIVWRIRK-OH, the outcome in data set [1], in [2], in [3], in [4], in data set [5] and in [6] was inactive. Besides, the outcome in [7], in data set [12], in data set [13], in [16] and in data set [17] was inactive. Further, the results for the Activity in data set [8] and in data set [10] were above 40% and 60%, respectively. For the same substance, the “fold change (FC)” value in data set [9] was 3.8. Besides, the outcome in data set [11] and in [14] was Active. The substance also registered a Retention_time in data set [15] of 16.16 min.

(Values after ChEMBL document CHEMBL5046216, “Disrupting Tryptophan in the Central Hydrophobic Region Selectively Mitigates Immunomodulatory Activities of the Innate Defence Regulator Peptide IDR-1002” (J Med Chem, 2021).)
